The source of these data is patent US7232904B2, “Crystal of arylethenesulfonamide derivative and preparation process thereof” (Astellas Pharma Inc., priority 2001, dated 2007).

Data set [1] concerns ET receptors, particularly an ETA receptor. To be noted: competitively inhibits binding to ET receptors; cited from earlier work.
A short description of data set [2]: hygroscopicity of crystals (FIGS. 10 to 12). Type of data set: physicochemical. To be noted: for moisture absorbed / moisture absorbed, corresponding moles of water: extent of moisture absorption with increase of humidity; for humidity above which moisture is absorbed: humidity exceeded before moisture absorption. An excerpt: Also, FIGS. 10 to 12 show the hygroscopicity of the three kinds of novel crystals of the potassium salt of Compound A of the invention.

A short description of data set [3]: preservation stability in a reagent bottle. Type of data set: physicochemical. The conditions noted are these: normal temperature, atmospheric pressure. An excerpt: Additionally, the α-type crystal, β-type crystal and γ-type crystal of the potassium salt of Compound A of the invention are morphologically pure. […] Moreover, since it is hardly electrified and is excellent in fluidity, it has advantages such that works are easy in adjusting solid formulations such as powders, granules, tablets, and capsules.

Data set [4] can be described thus: heat stability of crystals. The conditions noted are these: high melting point. The format is physicochemical.
[5] abbreviates: listed as α-type crystal of the potassium salt of Compound A.
The mark [6] stands for this setting: listed as β-type crystal of the potassium salt of Compound A.
[7] abbreviates: listed as γ-type crystal of the potassium salt of Compound A.

Regarding `COc1ccccc1Oc1c(NS(=O)(=O)/C=C/c2ccccc2)nc(-c2ncccn2)nc1OC.[K]` [potassium salt of Compound A], the “affinity with ET receptors” value in data set [1] was “high affinity”.
For the molecule `COc1ccccc1Oc1c(NS(=O)(=O)/C=C/c2ccccc2)nc(-c2ncccn2)nc1OC.[K]` [α-type crystal], in data set [2] (setting [5]), the moisture absorbed result is on record as “about 6%”; the “moisture absorbed, corresponding moles of water” value (from here on “moisture absorbed … of water”) is 1.8 moles of water; the “humidity above which moisture is absorbed” value is listed as “exceeded 65%”. In data set [3], the “stable in the preservation state” value is reported as “over 2 years”.
Consider `COc1ccccc1Oc1c(NS(=O)(=O)/C=C/c2ccccc2)nc(-c2ncccn2)nc1OC.[K]` [β-type crystal], for which, in data set [2] (setting [6]), the moisture absorbed result is “about 4%”; the “moisture absorbed … of water” value is recorded as 1.2 moles of water; the “humidity above which moisture is absorbed” value is on record as “exceeded 45%”. In data set [4], the “heat stability (in words)” value is “excellent in heat stability”.
Turning to `COc1ccccc1Oc1c(NS(=O)(=O)/C=C/c2ccccc2)nc(-c2ncccn2)nc1OC.[K]` [γ-type crystal], in data set [2] (setting [7]), the moisture absorbed entry is “about 1%” and the “moisture absorbed … of water” value was 0.3 moles of water. In data set [4], the “heat stability (in words)” value is given as “excellent in heat stability”.
